Measurements taken from patent publication US20220306623A1, “PYRIDYL OR PYRIMIDYL MTOR KINASE INHIBITORS” (GLAXOSMITHKLINE INTELLECTUAL PROPERTY DEVELOPMENT LIMITED, priority 2019, published 2022).
Where two headings read alike, the source gives them in different places.

Target: T1, mTOR (Homo sapiens, UniProt P42345)
T1 construct: capturing of endogenously expressed target proteins from cell extracts by a bead-immobilized capturing ligand; endogenous in cells; host or cells: HuT-78 cells (ECACC 88041901), cell lysate
Assay: mTOR kinobeads competition-binding assay
Conditions: HuT-78 cell lysate
Procedure: The affinity of test compounds for mTOR was determined in the mTOR kinobeads assay. This is a competition-binding assay based on the capturing of endogenously expressed target proteins from cell extracts by a bead-immobilized capturing ligand in the presence of the test compound.
HuT-78 cells (European Collection of Authenticated Cell Cultures, 88041901) were cultured according to vendor's instructions. Frozen cell pellets were homogenized in 3× pellet volumes lysis buffer (50 mM Tris-HCl, 0.4% (v/v) Igepal-CA630, 5% glycerol, 150 mM NaCl, 1.5 mM MgCl2, 25 mM NaF, 1 mM sodium vanadate, 1 mM DTT, pH 7.5, supplemented with EDTA-free protease inhibitor tablet (Roche)). The sample was dispersed using a Dounce homogenizer, kept rotating for 30 min at 4° C., and centrifuged for 10 min at 20000 gat 4° C. The supernatant was centrifuged again for 1 h at 145 000 g. The protein concentration was determined by Bradford assay (BioRad), aliquots were snap frozen in liquid nitrogen and stored at −80° C.
The capturing matrices were generated by derivatizing N-hydroxysuccinimide (NHS) activated Sepharose 4 beads (GE Healthcare) with the functionalized ligands Compound A and Compound C at a ligand density of 5 mM. Remaining NHS-groups were blocked with ethanolamine.
For the mTOR kinobeads assay the matrices were combined in a 1:1 ratio and equilibrated in DP buffer (50 mM Tris-HCl (pH 7.5), 0.4% (v/v) Igepal-CA630, 5% (v/v) glycerol, 150 mM NaCl, 1.5 mM MgCl2, 25 mM NaF, 1 mM Na3VO4, 1 mM dithiothreitol). All steps of the mTOR kinobeads assay were performed at 4° C. or on ice. The cell lysate was diluted with DP buffer to a final concentration of 5 mg/ml and a final detergent concentration of 0.4% (v/v) Igepal-CA630. For the assay 250 μg cell lysate and 2.5 μl capturing matrix per well (final assay volume: 75 μl) were incubated in the presence of test compounds in a 384-well filter plate (MultiScreenHTS HV Filter Plate, 0.45 μm, MZHVNOW50, Merck Millipore). Each plate contained 16 positive (100 μM Compound B) and 16 negative (2% v/v DMSO) control wells. Compounds were tested in a concentration-response applying 1:3 or 1:4 dilution steps for in total 11 data points. DMSO concentration was 2% (v/v). After 2 h incubation on an overhead shaker (Roto-Shake Genie, Scientific Industries Inc.) at 4° C. the non-bound fraction was removed by washing the beads with DP buffer. Proteins retained on the beads were eluted in SDS sample buffer (200 mM Tris (pH 7.4), 250 mM Trizma Base, 4% (w/v) SDS, 20% (v/v) glycerol, 0.01% (w/v) bromophenol blue, 50 mM dithiothreitol) into a collection plate (384 well polypropylene microplate, V-shape, Greiner, 781 280). Eluates were spotted on nitrocellulose membranes (400 nl per spot) using an automated pin-tool liquid transfer (Biomek FX, Beckman). After drying, the membranes were rehydrated in 20% (v/v) ethanol and blocked by incubation with Odyssey blocking buffer (LICOR, 927-40000) for 1 h at room temperature. Blocked membranes were incubated overnight at 25° C. with Odyssey blocking buffer supplemented with a specific anti-mTOR antibody (Cell Signaling, 2972; 1:500) and 0.4% TWEEN-20. Then the membranes were washed in PBST buffer and incubated for 60 minutes at room temperature with the detection antibody (IRDye™ labelled antibody from LI-COR) diluted in Odyssey blocking buffer (LICOR 927-40000) containing 0.2% TWEEN-20. Then the membranes were washed with PBST and finally rinsed twice with PBS buffer to remove residual Tween-20. The membranes were then scanned with the Odyssey® Infrared Imaging System (LI-COR Biosciences). Fluorescence signals were recorded and analyzed according to the instructions of the manufacturer. Concentration response curves were computed with the software Activity Base. All data were normalized to the mean of 16 high (negative control) and 16 low (positive control) control wells on each plate. […]

[1] = selected compounds, mean, read-out: mTOR (mean pIC50 values when tested in the mTOR binding assay) (converted)
[2] = bead-immobilized capturing ligand, 2 h at 4° C., mean of multiple experiments, read-out: mean pIC50, mTOR kinobeads assay (converted)

Row | IC50 [1] [nM] | IC50 [2] [nM] | SMILES
1 | 6.31 | – | CC[C@H]1COCCN1c1cc(C2(S(C)(=O)=O)CCNCC2)cc(-c2ccc3[nH]c(C)cc3n2)n1 [Example 18, (S)-3-ethyl-4-(6-(2-methyl-1H-pyrrolo[3,2-b]pyridin-5-yl)-4-(4-(methylsulfonyl)piperidin-4-yl)pyridin-2-yl)morpholine]
2 | – | ≤ 1.26 | CC[C@H]1COCC(=O)N1c1cc(CS(C)(=O)=O)cc(-c2ccc3[nH]c(CO)cc3n2)n1 [Example 27]
3 | – | ≤ 1.26 | CC[C@H]1COCC(=O)N1c1cc(C2(S(C)(=O)=O)CCOCC2)cc(-c2ccc3[nH]c(C)cc3n2)n1 [Example 25, (S)-5-ethyl-4-(6-(2-methyl-1H-pyrrolo[3,2-b]pyridin-5-yl)-4-(4-(methylsulfonyl)tetrahydro-2H-pyran-4-yl)pyridin-2-yl)morpholin-3-one]
4 | – | ≤ 1.26 | CC[C@H]1COCCN1c1cc(CS(N)(=O)=O)cc(-c2ccc3[nH]c(C)cc3n2)n1 [Example 23, (S)-(2-(3-ethylmorpholino)-6-(2-methyl-1H-pyrrolo[3,2-b]pyridin-5-yl)pyridin-4-yl)methanesulfonamide]
5 | – | ≤ 1.26 | CC[C@H]1COCCN1c1cc(CS(N)(=O)=O)nc(-c2ccc3[nH]c(CNC)cc3n2)n1 [Example 6, {6-[(3S)-3-ethylmorpholin-4-yl]-2-{2-[(methylamino)methyl]-1H-pyrrolo[3,2-b]pyridin-5-yl}pyrimidin-4-yl}methanesulfonamide]
6 | 0.501 | ≤ 1.26 | CC[C@H]1COCC(=O)N1c1cc(CS(C)(=O)=O)cc(-c2ccc3[nH]c(C)cc3n2)n1 [Example 24, (S)-5-ethyl-4-(6-(2-methyl-1H-pyrrolo[3,2-b]pyridin-5-yl)-4-((methylsulfonyl)methyl)pyridin-2-yl)morpholin-3-one]
7 | 0.794 | ≤ 1.26 | CC[C@H]1COCCN1c1cc(CS(C)(=O)=O)nc(-c2ccc3[nH]c(CNC)cc3n2)n1 [Example 1, [(5-{4-[(3S)-3-ethylmorpholin-4-yl]-6-(methanesulfonylmethyl)pyrimidin-2-yl}-1H-pyrrolo[3,2-b]pyridin-2-yl)methyl](methyl)amine]
8 | – | ≤ 1.26 | CC[C@H]1COCCN1c1cc(C2(S(C)(=O)=O)CCOCC2)nc(-c2ccc3[nH]c(C)cc3n2)n1 [Example 13, (3S)-3-ethyl-4-[6-(4-methanesulfonyloxan-4-yl)-2-{2-methyl-1H-pyrrolo[3,2-b]pyridin-5-yl}pyrimidin-4-yl]morpholine]
9 | 0.2 | ≤ 0.2 | CC[C@H]1COCC(=O)N1c1cc(CS(C)(=O)=O)nc(-c2ccc3[nH]c(C)cc3n2)n1 [Example 14, (5S)-5-ethyl-4-[6-(methanesulfonylmethyl)-2-{2-methyl-1H-pyrrolo[3,2-b]pyridin-5-yl}pyrimidin-4-yl]morpholin-3-one]
10 | – | ≤ 1.26 | CC[C@H]1COCCN1c1cc(C2(S(C)(=O)=O)CCOCC2)nc(-c2ccc3[nH]c(CO)cc3n2)n1 [Example 4, (5-{4-[(3S)-3-ethylmorpholin-4-yl]-6-(4-methanesulfonyloxan-4-yl)pyrimidin-2-yl}-1H-pyrrolo[3,2-b]pyridin-2-yl)methanol]
11 | 0.631 | ≤ 1.26 | CC[C@H]1COCCN1c1cc(CS(=O)(=O)N(C)C)nc(-c2ccc3[nH]c(CNC)cc3n2)n1 [Example 16, 1-{6-[(3S)-3-ethylmorpholin-4-yl]-2-{2-[(methylamino)methyl]-1H-pyrrolo[3,2-b]pyridin-5-yl}pyrimidin-4-yl}-N,N-dimethylmethanesulfonamide]
12 | – | ≤ 1.26 | CC[C@H]1COCCN1c1cc(CS(C)(=O)=O)nc(-c2ccc3[nH]c(CO)cc3n2)n1 [Example 2, (S)-(5-(4-(3-ethylmorpholino)-6-((methylsulfonyl)methyl)pyrimidin-2-yl)-1H-pyrrolo[3,2-b]pyridin-2-yl)methanol]
13 | – | ≤ 0.316 | CC[C@H]1COCCN1c1cc(CS(=O)(=O)N(C)C)nc(-c2ccc3[nH]c(CO)cc3n2)n1 [Example 9, 1-{6-[(3S)-3-ethylmorpholin-4-yl]-2-[2-(hydroxymethyl)-1H-pyrrolo[3,2-b]pyridin-5-yl]pyrimidin-4-yl}-N,N-dimethylmethanesulfonamide]
14 | – | ≤ 0.316 | CC[C@H]1COCC(=O)N1c1cc(C2(S(C)(=O)=O)CCOCC2)cc(-c2ccc3[nH]c(CO)cc3n2)n1 [Example 26]
15 | – | ≤ 0.0794 | CC[C@H]1COCCN1c1cc(CS(=O)(=O)NC)nc(-c2ccc3[nH]c(CO)cc3n2)n1 [Example 10, 1-{6-[(3S)-3-ethylmorpholin-4-yl]-2-[2-(hydroxymethyl)-1H-pyrrolo[3,2-b]pyridin-5-yl]pyrimidin-4-yl}-N-methylmethanesulfonamide]
16 | 0.316 | ≤ 0.316 | CCc1cc2nc(-c3nc(CS(C)(=O)=O)cc(N4C(=O)COC[C@@H]4CC)n3)ccc2[nH]1 [Example 15, (5S)-5-ethyl-4-(2-{2-ethyl-1H-pyrrolo[3,2-b]pyridin-5-yl}-6-(methanesulfonylmethyl)pyrimidin-4-yl)morpholin-3-one]
